Entries after “also recorded” stand apart in the source; their conditions may differ.
How the values were obtained:
Beagle dogs [1] = experiment: Dog study: plasma hormones, electrolytes and renal function; type: in vivo; settings: iv bolus + continuous infusion
Experimental: (§1) A total of 30 experiments were performed on six female Beagle dogs (body wt 14.3±0.3 kg). The dogs were kept under highly standardized conditions and received a standardized diet five days before the experiments. The preparation and catheterization of the conscious dog were performed according to former experiments as in Höhne C., et al., J Appl Physiol (2004), which is hereby incorporated by reference in its entirety. To permit spontaneous breathing through a low resistance circuit, a face mask was attached, which enclosed the dog's snout in a leak proof fashion. This custom made mask is equipped with a 2.5 cm ID connector to connect it to a ventilator set to CPAP mode (3 4 cmH20) (Servo900C; Siemens-Elema, Erlangen/Germany).
(§2) Six dogs were studied in five different protocols in randomized order:
(§3) 4) Benzolamide intravenously: Bolus (2 mg/kg), followed by a continuous infusion of 2 mg·kg^−1·h^−1, a dosage which inhibits only renal and vascular endothelial extracellular CA, without affecting red cell CA as in Travis D. M., et al. J Pharmacol Exp Ther (1964), which is hereby incorporated by reference in its entirety. 5) Ethoxzolamide (Sigma-Aldrich, Steinheim/Germany) intravenously: Bolus ethoxzolamide (1 mg/kg), followed by a continuous infusion of 1 mg·kg^−1·h^−1.
(§4) In control experiments, the dogs breathed room air (21% O2, 79% N2; normoxia) for one hour, followed by breathing a gas mixture containing 10% O2 and 90% N2 for two hours (hypoxia). The time course was the same for the CA inhibitor experiments, but F1O2 was reduced to 0.09 during the hypoxia period to match the arterial and alveolar PO2 of the control dogs, which otherwise would have been higher on 10% O2 as a result of the known ventilatory stimulant effect of all CA inhibitors. See Höhne C., et al., J Appl Physiol 97:515-521 (2004), which is hereby incorporated by reference in its entirety. The hemodynamic measurements (arterial blood pressure, heart rate, central venous pressure, pulmonary artery pressure, pulmonary capillary wedge pressure), minute ventilation, renal function data, time points for blood samples for blood gases, actual bicarbonate, base excess, plasma electrolytes and hormones, measurements of plasma and urinary values were according to former studies. See Höhne C., et al., J Appl Physiol 90:1842-1848 (2001), which is hereby incorporated by reference in its entirety.
(§5) Values are given as means±SEM (n=6). For intra-group comparisons a general linear model of analysis of variance (GLM-ANOVA) for repeated measures was applied (NCSS97/PASS 2000, Saugus/MA, USA). Post-hoc testing of means was performed with Student's t-test. Level of significance for error of first order was adjusted according to Holm's procedure. Statistical significance was assumed at p<0.05.

PASMCs = experiment: Hypoxia-induced increase in [Ca2+]i in PASMCs (4% O2); type: cell-based, rat; settings: 10-100 μM
Experimental: Intrapulmonary arteries (200-600 μm o.d.) were isolated from male Wistar rats (250-350 g) and cleaned of connective tissue. After the lumen was gently rubbed with a cotton swab to remove the endothelial cells, the arteries were allowed to recover for 30 minutes in cold (4° C.) HBSS containing (in mM): 130 NaCl, 5 KCl, 1.2 MgCl2, 1.5 CaCl2, 10 N-[2-hydroxyethyl]piperazine-N′-[2-ethanesulfonic acid] (HEPES) and 10 glucose, with pH adjusted to 7.2 with 5 M NaOH, followed by 20 minutes in reduced-Ca^2+ (20 μM CaCl2) HBSS at room temperature. […] Following digestion, single smooth muscle cells were dispersed by gentle trituration with a wide-bore transfer pipette in Ca^2+-free HBSS and the cell suspension was placed on 25 mm glass cover slips. PASMCs were transiently cultured in Ham's-F-12 media supplemented with 0.5% fetal bovine serum and 1% penicillin/streptomycin for 24-48 hrs. before study.
Acute hypoxia increases intracellular [Ca^2+] in pulmonary arterial smooth muscle by enhancing capacitative Ca^2+ entry. […] Ratiometric measurement of fluorescence from the dye was performed on a workstation (Intracellular Imaging Inc, Cincinnati, Ohio) consisting of a Nikon TSE 100 Ellipse inverted microscope with epi-fluorescence attachments. The light beam from a xenon arc lamp was filtered at 340 and 380 nm, and focused onto the PASMCS under examination via a 20× fluorescence objective (Super Fluor 20, Nikon). Light emitted from the cell at 510 nm was returned through the objective and detected by a cooled CCD imaging camera. An electronic shutter (Sutter Instruments) was used to minimize photobleaching of dye. Protocols were executed and data collected on-line with InCyte software (Intracellular Imaging Inc). [Ca^2+]i was estimated from in vitro calibration solutions.

Beagle dogs [2] = experiment: Dog study: pulmonary and systemic hemodynamics, hypoxic pulmonary vasoconstriction; type: in vivo; settings: for MPAP and PVR during hypoxia (words): iv bolus + continuous infusion (AZ, benzolamide 2 mg/kg + 2 mg/kg/h; ethoxzolamide 1 mg/kg + 1 mg/kg/h)
Experimental: as §1, §2, §3, §4, §5

[3] = iv bolus + continuous infusion, hypoxia 2nd h
[4] = iv bolus + continuous infusion, hypoxia 3rd h
[5] = iv bolus + continuous infusion, normoxia 1st h

Compound | plasma renin activity during hypoxia (Beagle dogs [1]) | GFR, glomerular filtration rate (Beagle dogs [1]; hypoxia 2nd h) [L/h/kg] | PK, plasma potassium concentration (Beagle dogs [1]; hypoxia 2nd h) [mM] | UV, urine volume (Beagle dogs [1]; hypoxia 2nd h) [L/h/kg] | GFR, glomerular filtration rate (Beagle dogs [1]; hypoxia 3rd h) [L/h/kg] | PK, plasma potassium concentration (Beagle dogs [1]; hypoxia 3rd h) [mM] | UV, urine volume (Beagle dogs [1]; hypoxia 3rd h) [L/h/kg] | GFR, glomerular filtration rate (Beagle dogs [1]; normoxia 1st h) [L/h/kg] | PK, plasma potassium concentration (Beagle dogs [1]; normoxia 1st h) [mM] | UV, urine volume (Beagle dogs [1]; normoxia 1st h) [L/h/kg] | effect on hypoxia-induced increase in [Ca^2+]i (PASMCs) | CO, cardiac output (Beagle dogs [2]; [3]) [L/min] | CVP, central venous pressure (Beagle dogs [2]; [3]) [cmH2O] | HR, heart rate (Beagle dogs [2]; [3]) [beats/min] | MAP, mean arterial pressure (Beagle dogs [2]; [3]) [mmHg] | MPAP, mean pulmonary arterial pressure (Beagle dogs [2]; [3]) [mmHg] | PCWP, pulmonary capillary wedge pressure (Beagle dogs [2]; [3]) [cm H2O] | SVR, systemic vascular resistance (Beagle dogs [2]; [3]) [dyn · s^1 · cm^−5] | CO, cardiac output (Beagle dogs [2]; [4]) [L/min] | CVP, central venous pressure (Beagle dogs [2]; [4]) [cmH2O] | further results
NS(=O)(=O)c1nnc(NS(=O)(=O)c2ccccc2)s1 [BZ, benzolamide] | did not change | 0.18 ± 0.012 | 2.9 ± 0.1 | 0.00624 ± 0.00138 | 0.192 ± 0.012 | 2.8 ± 0.1 | 0.0039 ± 0.0009 | 0.174 ± 0.012 | 3.0 ± 0.1 | 0.00396 ± 0.00042 | no effect; also recorded: neither EF (FIG. 5) nor BZ (FIG. 6) had a significant effect | 2.6 ± 0.2 | 1.5 ± 0.2 | 94 ± 10 | 109 ± 6 | 18 ± 1 | 3.2 ± 0.4 | 3272 ± 113 | 2.7 ± 0.2 | 1.2 ± 0.2 | MPAP and PVR during hypoxia (words) (Beagle dogs [2]; listed as Benzolamide): did not inhibit; MPAP and PVR during hypoxia (words) (Beagle dogs [2]; listed as benzolamide): increased; HR, heart rate (Beagle dogs [2]; [4]): 90 ± 8 beats/min; MAP, mean arterial pressure (Beagle dogs [2]; [4]): 109 ± 9 mmHg; MPAP, mean pulmonary arterial pressure (Beagle dogs [2]; [4]): 19 ± 1 mmHg; PCWP, pulmonary capillary wedge pressure (Beagle dogs [2]; [4]): 3.8 ± 0.3 cm H2O; SVR, systemic vascular resistance (Beagle dogs [2]; [4]): 3227 ± 83 dyn · s^1 · cm^−5; CO, cardiac output (Beagle dogs [2]; [5]): 2.7 ± 0.2 L/min; CVP, central venous pressure (Beagle dogs [2]; [5]): 1.8 ± 0.3 cmH2O; HR, heart rate (Beagle dogs [2]; [5]): 73 ± 6 beats/min; MAP, mean arterial pressure (Beagle dogs [2]; [5]): 102 ± 5 mmHg; MPAP, mean pulmonary arterial pressure (Beagle dogs [2]; [5]): 12 ± 1 mmHg; PCWP, pulmonary capillary wedge pressure (Beagle dogs [2]; [5]): 3.2 ± 0.2 cm H2O; SVR, systemic vascular resistance (Beagle dogs [2]; [5]): 3101 ± 376 dyn · s^1 · cm^−5
CCOc1ccc2nc(S(N)(=O)=O)sc2c1 [EZ, ethoxzolamide] | did not change | 0.186 ± 0.012 | 2.8 ± 0.1 | 0.00432 ± 0.00132 | 0.192 ± 0.012 | 2.7 ± 0.1 | 0.0027 ± 0.00036 | 0.192 ± 0.012 | 3.1 ± 0.1 | 0.00312 ± 0.00054 | no effect | 2.9 ± 0.2 | 2.5 ± 0.2 | 104 ± 6 | 104 ± 7 | 17 ± 1 | 4.0 ± 0.5 | 2745 ± 154 | 2.9 ± 0.3 | 2.5 ± 0.2 | effect on hypoxia-induced increase in [Ca^2+]i (PASMCs; listed as EF): neither EF (FIG. 5) nor BZ (FIG. 6) had a significant effect; MPAP and PVR during hypoxia (words) (Beagle dogs [2]): increased; also recorded: did not prevent; HR, heart rate (Beagle dogs [2]; [4]): 106 ± 4 beats/min; MAP, mean arterial pressure (Beagle dogs [2]; [4]): 101 ± 1 mmHg; MPAP, mean pulmonary arterial pressure (Beagle dogs [2]; [4]): 16 ± 1 mmHg; PCWP, pulmonary capillary wedge pressure (Beagle dogs [2]; [4]): 3.5 ± 0.3 cm H2O; SVR, systemic vascular resistance (Beagle dogs [2]; [4]): 3270 ± 380 dyn · s^1 · cm^−5; CO, cardiac output (Beagle dogs [2]; [5]): 2.8 ± 0.2 L/min; CVP, central venous pressure (Beagle dogs [2]; [5]): 2.3 ± 0.2 cmH2O; HR, heart rate (Beagle dogs [2]; [5]): 77 ± 4 beats/min; MAP, mean arterial pressure (Beagle dogs [2]; [5]): 96 ± 2 mmHg; MPAP, mean pulmonary arterial pressure (Beagle dogs [2]; [5]): 11 ± 1 mmHg; PCWP, pulmonary capillary wedge pressure (Beagle dogs [2]; [5]): 3.8 ± 0.2 cm H2O; PVR, pulmonary vascular resistance (Beagle dogs [2]; [5]): 221 ± 21 dyn · s^−1 · cm^−5; SVR, systemic vascular resistance (Beagle dogs [2]; [5]): 2784 ± 200 dyn · s^1 · cm^−5
